Legend:
[1] = tested on: CPA-CLP sepsis mouse model; assay: Effects of LPC, LPC isomers, Xigris and DW286aa on mortalities/survivabilities in CPA-CLP sepsis mouse model (SEP009); single i.v. 6 hrs after CLP; assay type: in vivo
Method: (§1) CPA is well known as an immunosuppressive agent. […] Then, the abdomen was closed following the general procedure.
(§2) Then, body weight and mortality changes were observed.
In the Sham and CLP control groups, 10 ml/kg of only sterile physiological saline was single intravenously dosed.

[2] = tested on: CPA-CLP sepsis mouse model; assay: Combination effects of LPC and antibiotics (colistin, tobramycin, fusidin) in CPA-CLP sepsis mouse model (SEP013); single i.v. 6 hrs after CLP; assay type: in vivo, ICR mice; settings: mpk: LPC 5, DW286aa 5, Colistin 5, Tobra 4, Fusidin 80, LPC + Colistin 5 + 5, LPC + Tobra 5 + 4, LPC + Fusidin 5 + 80
Source text: as §1, §2

[3] = LPC, LPC18:0, LPC18:1, LPA 5 mpk, Xigris 0.4 mpk, DW286aa 10 mpk, 1st CPA treat
[4] = LPC, LPC18:0, LPC18:1, LPA 5 mpk, Xigris 0.4 mpk, DW286aa 10 mpk, 2nd CPA treat
[5] = LPC, LPC18:0, LPC18:1, LPA 5 mpk, Xigris 0.4 mpk, DW286aa 10 mpk, At CLP (day 0)
[6] = LPC, LPC18:0, LPC18:1, LPA 5 mpk, Xigris 0.4 mpk, DW286aa 10 mpk, Day 1
[7] = LPC, LPC18:0, LPC18:1, LPA 5 mpk, Xigris 0.4 mpk, DW286aa 10 mpk, Day 2
[8] = LPC, LPC18:0, LPC18:1, LPA 5 mpk, Xigris 0.4 mpk, DW286aa 10 mpk, Day 3
[9] = LPC, LPC18:0, LPC18:1, LPA 5 mpk, Xigris 0.4 mpk, DW286aa 10 mpk, Day 4
[10] = LPC, LPC18:0, LPC18:1, LPA 5 mpk, Xigris 0.4 mpk, DW286aa 10 mpk, Day 5
[11] = LPC, LPC18:0, LPC18:1, LPA 5 mpk, Xigris 0.4 mpk, DW286aa 10 mpk, Day 6
[12] = LPC, LPC18:0, LPC18:1, LPA 5 mpk, Xigris 0.4 mpk, DW286aa 10 mpk, Day 7
[13] = LPC, LPC18:0, LPC18:1, LPA 5 mpk, Xigris 0.4 mpk, DW286aa 10 mpk, Day 8
[14] = LPC, LPC18:0, LPC18:1, LPA 5 mpk, Xigris 0.4 mpk, DW286aa 10 mpk, Day 9
[15] = LPC, LPC18:0, LPC18:1, LPA 5 mpk, Xigris 0.4 mpk, DW286aa 10 mpk, Day 10
[16] = LPC, LPC18:0, LPC18:1, LPA 5 mpk, Xigris 0.4 mpk, DW286aa 10 mpk, Total
[17] = Xigris 2 mpk, DW286aa 20 mpk, 1st CPA treat
[18] = Xigris 2 mpk, DW286aa 20 mpk, 2nd CPA treat
[19] = Xigris 2 mpk, DW286aa 20 mpk, At CLP (day 0)
[20] = Xigris 2 mpk, DW286aa 20 mpk, Day 1
[21] = Xigris 2 mpk, DW286aa 20 mpk, Day 2
[22] = Xigris 2 mpk, DW286aa 20 mpk, Day 3
[23] = Xigris 2 mpk, DW286aa 20 mpk, Day 4
[24] = Xigris 2 mpk, DW286aa 20 mpk, Day 5
[25] = Xigris 2 mpk, DW286aa 20 mpk, Day 6
[26] = Xigris 2 mpk, DW286aa 20 mpk, Day 7
[27] = Xigris 2 mpk, DW286aa 20 mpk, Day 8
[28] = Xigris 2 mpk, DW286aa 20 mpk, Day 9
[29] = Xigris 2 mpk, DW286aa 20 mpk, Day 10
[30] = Xigris 2 mpk, DW286aa 20 mpk, Total

## 1-oleoyl-2-hydroxy-sn-glycero-3-phosphocholine [LPC18:1]
[1]; [3]
  Mortalities: 0
  survivabilities: 100%
[1]; [4]
  Mortalities: 0
  survivabilities: 100%
[1]; [5]
  Mortalities: 0
  survivabilities: 100%
[1]; [6]
  Mortalities: 0
  survivabilities: 100%
[1]; [7]
  Mortalities: 10
  survivabilities: 0%
[1]; [8]
  Mortalities: 0
  survivabilities: 0%
[1]; [9]
  Mortalities: 0
  survivabilities: 0%
[1]; [10]
  Mortalities: 0
  survivabilities: 0%
[1]; [11]
  Mortalities: 0
  survivabilities: 0%
[1]; [12]
  Mortalities: 0
  survivabilities: 0%
[1]; [13]
  Mortalities: 0
  survivabilities: 0%
[1]; [14]
  Mortalities: 0
  survivabilities: 0%
[1]; [15]
  Mortalities: 0
  survivabilities: 0%
[1]; [16]
  Mortalities: 10
  survivabilities: 0%

## CC(=O)O[C@H]1C[C@@]2(C)[C@@H](C[C@@H](O)[C@H]3[C@@]4(C)CC[C@@H](O)[C@@H](C)[C@@H]4CC[C@@]32C)/C1=C(\CCC=C(C)C)C(=O)O [Fusidin, fusidic acid]
[2]; 1st CPA treat
  Mortalities: 0
  Survivalities: 100%
[2]; 2nd CPA treat
  Mortalities: 0
  Survivalities: 100%
[2]; At CLP (day 0)
  Mortalities: 0
  Survivalities: 100%
[2]; Day 1
  Mortalities: 2
  Survivalities: 80%
[2]; Day 2
  Mortalities: 5
  Survivalities: 30%
[2]; Day 3
  Mortalities: 1
  Survivalities: 20%
[2]; Total
  Mortalities: 8
  Survivalities: 20%

## CCCCCCCCCCCCCCCCCC(=O)OC[C@@H](O)COP(=O)([O-])OCC[N+](C)(C)C [LPC18:0]
[1]; [3]
  Mortalities: 0
  survivabilities: 100%
[1]; [4]
  Mortalities: 0
  survivabilities: 100%
[1]; [5]
  Mortalities: 0
  survivabilities: 100%
[1]; [6]
  Mortalities: 0
  survivabilities: 100%
[1]; [7]
  Mortalities: 6
  survivabilities: 40%
[1]; [8]
  Mortalities: 0
  survivabilities: 40%
[1]; [9]
  Mortalities: 1
  survivabilities: 30%
[1]; [10]
  Mortalities: 1
  survivabilities: 20%
[1]; [11]
  Mortalities: 0
  survivabilities: 20%
[1]; [12]
  Mortalities: 1
  survivabilities: 10%
[1]; [13]
  Mortalities: 1
  survivabilities: 0%
[1]; [14]
  Mortalities: 0
  survivabilities: 0%
[1]; [15]
  Mortalities: 0
  survivabilities: 0%
[1]; [16]
  Mortalities: 10
  survivabilities: 0%

## NC[C@H]1O[C@H](O[C@H]2[C@H](O)[C@@H](O[C@H]3O[C@H](CO)[C@@H](O)[C@H](N)[C@H]3O)[C@H](N)C[C@@H]2N)[C@H](N)C[C@@H]1O [Tobra, tobramycin]
[2]; 1st CPA treat
  Mortalities: 0
  Survivalities: 100%
[2]; 2nd CPA treat
  Mortalities: 0
  Survivalities: 100%
[2]; At CLP (day 0)
  Mortalities: 0
  Survivalities: 100%
[2]; Day 1
  Mortalities: 2
  Survivalities: 80%
[2]; Day 2
  Mortalities: 5
  Survivalities: 30%
[2]; Day 3
  Mortalities: 1
  Survivalities: 20%
[2]; Total
  Mortalities: 8
  Survivalities: 20%

## drotrecogin alfa (activated) [Xigris, reference compound]
[1]; [3]
  Mortalities: 0
  survivabilities: 100%
[1]; [4]
  Mortalities: 0
  survivabilities: 100%
[1]; [5]
  Mortalities: 0
  survivabilities: 100%
[1]; [6]
  Mortalities: 3
  survivabilities: 70%
[1]; [7]
  Mortalities: 4
  survivabilities: 30%
[1]; [8]
  Mortalities: 2
  survivabilities: 10%
[1]; [9]
  Mortalities: 0
  survivabilities: 10%
[1]; [10]
  Mortalities: 0
  survivabilities: 10%
[1]; [11]
  Mortalities: 0
  survivabilities: 10%
[1]; [12]
  Mortalities: 0
  survivabilities: 10%
[1]; [13]
  Mortalities: 1
  survivabilities: 0%
[1]; [14]
  Mortalities: 0
  survivabilities: 0%
[1]; [15]
  Mortalities: 0
  survivabilities: 0%
[1]; [16]
  Mortalities: 10
  survivabilities: 0%
[1]; [17]
  Mortalities: 0
  survivabilities: 100%
[1]; [18]
  Mortalities: 0
  survivabilities: 100%
[1]; [19]
  Mortalities: 0
  survivabilities: 100%
[1]; [20]
  Mortalities: 0
  survivabilities: 100%
[1]; [21]
  Mortalities: 5
  survivabilities: 50%
[1]; [22]
  Mortalities: 1
  survivabilities: 40%
[1]; [23]
  Mortalities: 3
  survivabilities: 10%
[1]; [24]
  Mortalities: 0
  survivabilities: 10%
[1]; [25]
  Mortalities: 0
  survivabilities: 10%
[1]; [26]
  Mortalities: 0
  survivabilities: 10%
[1]; [27]
  Mortalities: 1
  survivabilities: 0%
[1]; [28]
  Mortalities: 0
  survivabilities: 0%
[1]; [29]
  Mortalities: 0
  survivabilities: 0%
[1]; [30]
  Mortalities: 10
  survivabilities: 0%

— US9446061B2, “Composition containing antibiotics and lysophosphatidylcholine for boosting immunity or treatment of bacterial infections” (priority 2011, dated 2016)
